Source: publication PMC11226541 (Cancer Medicine, 2024)
Where two headings read alike, the source gives them in different places.

Columns and labels:
[1] = system: patients with locally advanced and metastatic solid tumors; assay: Dose-limiting toxicities, MTD and RP2D, dose-escalation stage (modified 3 + 3); assay type: in vivo, human; conditions: QD, with pamiparib 60 mg BID
Source text: AEs were coded using MedDRA v25.0 or higher.

[2] = Pharmacokinetics of TMZ in plasma (combination with pamiparib); assay type: in vivo; conditions: human, po, read-out: mean plasma concentration of TMZ 1 h after oral administration
Experimental: (§1) PK of pamiparib and TMZ were assessed in blood samples collected at various timepoints following administration (pamiparib: ≤30 min before dosing, 1 h ± 15 min, 2 h ± 30 min, and 4 h ± 30 min after pamiparib dose on cycle 1 Day 1 and cycle 1 Day 15; TMZ: on cycle 1 Day 1 and Day 7 at ≤30 min before dosing and 1 h ± 15 min after TMZ dose). Parameters for pamiparib included the maximum observed plasma concentration (Cmax), lowest concentration reached before the next administered dose (Ctrough), half‐life (T1/2), and time to reach peak plasma concentration (Tmax). Biomarkers were analyzed in blood samples, processed into serum, plasma, and cell fractions for the analysis of germline mutations and circulating markers. Available archival or fresh tumor tissue samples were analyzed at a central laboratory. Tumor tissue was sent either as a formalin‐fixed, paraffin‐embedded block with tumor tissue (preferred) or as approximately 10 unstained slides.

[3] = system: recurrent glioblastoma; design: method as in PMID 32347934; conditions: combination with TMZ; cited from earlier work
[4] = system: BRCA1/2-mutated ovarian cancer; design: method as in PMID 34844979; conditions: monotherapy, cited from earlier work
[5] = Pharmacokinetics of pamiparib in plasma (combination with TMZ); assay type: in vivo, human; conditions: for concentration at 2 h: read-out: geometric mean pamiparib concentration at 2 h post dose
Experimental: as §1

[6] = system: triple-negative breast cancer with germline BRCA1/2 mutations; design: method as in PMID 36459284; conditions: monotherapy, TNBC patients with germline BRCA1/2 mutations; cited from earlier work
[7] = design: method as in PMID 32652442; conditions: cited from earlier work
[8] = system: advanced or metastatic solid tumors; conditions: cited from earlier work
[9] = system: advanced malignancies; design: method as in PMID 36136304; conditions: combination with TMZ, related AEs; cited from earlier work

## Cn1nnc2c(C(N)=O)ncn2c1=O [TMZ, Temozolomide]
[1]; 7-day pulsed
  RP2D of TMZ: 60 mg
  maximum tolerated dose of TMZ: 60 mg
[1]; continuous
  maximum tolerated dose of TMZ: 20 mg
[2]; cycle 1 Day 1, 20-mg dose
  concentration at 1 h: 338 ng/mL
[2]; cycle 1 Day 1, 120-mg dose
  concentration at 1 h: 1510 ng/mL

## O=C(c1cc(Cc2n[nH]c(=O)c3ccccc23)ccc1F)N1CCN(C(=O)C2CC2)CC1 [olaparib]
[3]
  Grade 3/4 neutropenia: 13%
  Grade 3/4 thrombocytopenia: 25%

## C[C@]12CCCN1CC1=NNC(=O)c3cc(F)cc4[nH]c2c1c34 [pamiparib, Pamiparib]
[4]; BRCA1/2-mutated platinum-resistant ovarian cancer
  ORR: 31.6%
[4]; BRCA1/2-mutated platinum-sensitive ovarian cancer
  ORR: 64.6%
[5]; combination with TMZ
  geometric mean AUC0-4 at steady state relative to single-dose pamiparib administration: approximately twice
[5]; human, plasma, oral, cycle 1 Day 1, combination with TMZ
  concentration at 2 h: 1580 ng/mL
[5]; human, plasma, oral, cycle 1 Day 15, combination with TMZ
  concentration at 2 h: 3480 ng/mL
[5]; human, plasma, oral, steady state with combination TMZ therapy (cycle 1 Day 15), pamiparib 60 mg BID, read-out: pamiparib geometric mean AUC0-4
  AUC(0-t): 11100 ng·h/mL
[5]; oral, pamiparib 60 mg BID with TMZ, human plasma, n/N 20/20, read-out: Cmax – mean (SD)
  Cmax: 2010 ng/mL
[5]; oral, pamiparib 60 mg BID with TMZ, human plasma, n/N 20/20, read-out: Tmax – mean (SD)
  Tmax: 4 h
[5]; pamiparib 60 mg BID with TMZ, steady state, cycle 1, day 15, human plasma, n/N 8/20
  AUC0-4, SS – geometric mean: 11,119 h*ng/mL
[5]; pamiparib 60 mg BID with TMZ, steady state, cycle 1, day 15, human plasma, n/N 14/20
  Ctrough, SS – mean (SD): 2,934 (2346) ng/mL
[6]
  ORR: 38.2%
[7]; mice and rats
  brain penetration: strong brain penetration
[7]; mice
  drug exposure in the brain: higher drug exposure in the brain compared with other PARP inhibitors
[8]; administered orally, BID
  RP2D of pamiparib: 60 mg
[8]; monotherapy, advanced or metastatic solid tumors
  ORR: 27.3%

## Cn1ncnc1[C@H]1c2n[nH]c(=O)c3cc(F)cc(c23)N[C@@H]1c1ccc(F)cc1 [talazoparib]
[9]
  Grade 3/4 neutropenia: 28%
  Grade 3/4 thrombocytopenia: 33%
